Assays:
Format in all cases: cell-based
[1] = system: HepG-2; test: MTT cytotoxicity assay, HepG-2; conditions: Homo sapiens, HepG2, hepatocellular carcinoma HepG-2, 48 h
Protocol: (§1) HepG2, MCF-7, WI 38, Caco-2 cancer cell lines were cultured in complete media of RPMI and DMEM, respectively, at 5% carbon dioxide and 37 °C following standard tissue culture work. The cells were grown in “10% fetal bovine serum (FBS) and 1% penicillin–streptomycin” in 96-multiwell plate. All the synthesized compounds were screened for their cytotoxicity using 20 μL of MTT solution (Promega, USA) for 48 h using untreated and treated cells with concentrations of (0.01, 0.1, 1, 10, and 100 μM) for 48 h.[41,42] The plate was cultured for 3 hours. The percentage of cell viability was calculated following this equation: […]. An ELISA microplate reader was used to measure the absorbance at 690 nm to calculate the viability versus concentration, and the IC50 value using GraphPad prism software.

[2] = system: Caco2; test: MTT cytotoxicity assay, Caco2; conditions: Homo sapiens, Caco-2, colon cancer Caco2, 48 h
Protocol: as §1

[3] = system: MCF-7; test: MTT cytotoxicity assay, MCF-7; conditions: Homo sapiens, MCF7, breast cancer MCF-7, 48 h
Protocol: as §1

[4] = system: WI 38; test: MTT cytotoxicity assay, normal lung fibroblast WI 38; conditions: Homo sapiens, 48 h
Protocol: as §1

Row | Structure (SMILES) | IC50 [1] [µM] | IC50 [2] [µM] | IC50 [3] [µM] | IC50 [4] [µM]
1 | COc1ccc(C=NN=C(C)c2nn(-c3ccc(S(N)(=O)=O)cc3)c(=N)s2)cc1 [Compound 7a, 4-[2-Imino-5-(-1-((4-methoxybenzylidene)hydrazineylidene)ethyl)-1,3,4-thiadiazol-3(2H)-yl]benzenesulfonamide] | 4.17 ± 0.2 | 3.16 ± 0.2 | 31.5 ± 1.4 | 28.2 ± 1.5
2 | CC(=NN=Cc1ccc(N(C)C)cc1)c1nn(-c2ccc(S(N)(=O)=O)cc2)c(=N)s1 [Compound 7b, 4-[5-(1-((4-(Dimethylamino)benzylidene)hydrazineylidene)ethyl)-2-imino-1,3,4-thiadiazol-3(2H)-yl]benzenesulfonamide] | 26.8 ± 1.5 | 33.6 ± 1.7 | 35.2 ± 1.6 | 49.8 ± 2.6
3 | CC(=NN=Cc1ccc([N+](=O)[O-])cc1)c1nn(-c2ccc(S(N)(=O)=O)cc2)c(=N)s1 [Compound 7c, 4-[2-Imino-5-(1-((4-nitrobenzylidene)hydrazineylidene)ethyl)-1,3,4-thiadiazol-3(2H)-yl]benzenesulfonamide] | 3.04 ± 0.2 | 3.37 ± 0.2 | 9.59 ± 0.4 | 25.4 ± 1.9
4 | COc1cc(OC)c(C=NN=C(C)c2nn(-c3ccc(S(N)(=O)=O)cc3)c(=N)s2)c(OC)c1 [Compound 9, 4-[2-Imino-5-(1-((2,4,6-trimethoxybenzylidene)hydrazineylidene)ethyl)-1,3,4-thiadiazol-3(2H)-yl]benzenesulfonamide] | 12.2 ± 0.7 | 47.2 ± 2.3 | 7.21 ± 0.3 | 25.4 ± 1.3
5 | CC(=NN=Cc1ccco1)c1nn(-c2ccc(S(N)(=O)=O)cc2)c(=O)s1 [Compound 11, 4-[5-(1-((Furan-2-ylmethylene)hydrazineylidene)ethyl)-2-oxo-1,3,4-thiadiazol-3(2H)-yl]benzene sulfonamide] | 15 ± 0.8 | 8.55 ± 0.4 | 3.34 ± 0.2 | 24.5 ± 1.8
6 | CC(=NN=C1C(=O)Nc2ccccc21)c1nn(-c2ccc(S(N)(=O)=O)cc2)c(=N)s1 [Compound 13, 4-[2-Imino-5-(1-((2-oxoindolin-3-ylidene)hydrazineylidene)ethyl)-1,3,4-thiadiazol-3(2H)-yl]benzenesulfonamide] | 1.76 ± 0.1 | 8.99 ± 0.4 | 17.7 ± 0.8 | 11.4 ± 0.6
7 | CC(=NN=C1C(=O)N(CN(C)C)c2ccccc21)c1nn(-c2ccc(S(N)(=O)=O)cc2)c(=N)s1 [Compound 15a, 4-[5-(1-((1-((Dimethylamino)methyl)-2-oxoindolin-3-ylidene)hydrazineylidene)ethyl)-2-imino-1,3,4-thiadiazol-3(2H)-yl]benzenesulfonamide] | 6.54 ± 0.4 | 2.33 ± 0.1 | 4.34 ± 0.2 | 13.4 ± 0.7
8 | CCN(CC)CN1C(=O)C(=NN=C(C)c2nn(-c3ccc(S(N)(=O)=O)cc3)c(=N)s2)c2ccccc21 [Compound 15b, 4-[5-(1-((1-((Diethylamino)methyl)-2-oxoindolin-3-ylidene)hydrazineylidene)ethyl)-2-imino-1,3,4-thiadiazol-3(2H)-yl)benzenesulfonamide] | 1.62 ± 0.1 | 0.78 ± 0.04 | 4.43 ± 0.2 | 16.8 ± 0.9

— article PMC10068595, “Novel asymmetrical azines appending 1,3,4-thiadiazole sulfonamide: synthesis, molecular structure analyses, in silico ADME, and cytotoxic effect” (RSC Advances, 2023)
